These results are taken from PubChem BioAssay (NCI).

Among the test systems are SF-295 CNS; SW-620 colon; SK-OV-3 ovarian; MDA-MB-231 breast; SNB-19 CNS; NCI-H522 lung; NCI-H460 lung; NCI-H23 lung; SN12C renal.
Test in all cases: growth of human tumour cells (NCI), 48 h

Molecules are shown by their SMILES. Values joined by “and” are separate entries in the source; they are usually repeats but may differ in a detail not shown here. Equal values may be shown once.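 1) Cells in 96-well plates. 2) Compound, 48 h, 5 concentrations. 3) Linear interpolation between surrounding doses. 4) Unreached endpoint = highest concentration. GI50 is the concentration that inhibits growth by half. TGI marks complete inhibition of growth.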

For the molecule `O=C1CCCCCCCC/C=C/CCC(c2ccco2)O1` (stereo unspecified), the GI50 was 18.6 µM in the experiment on SF-295 CNS; 58.3 µM in the experiment on SW-620 colon; more than 100 µM in the experiment with SK-OV-3 ovarian; 40 µM with MDA-MB-231 breast; 24 µM with SNB-19 CNS; 37.7 µM in the experiment with NCI-H522 lung. In addition, the GI50 was more than 100 µM in the experiment on NCI-H460 lung, more than 100 µM in the experiment on NCI-H23 lung and 31.7 µM in the experiment on SN12C renal. The TGI was more than 100 µM in the experiment with SF-295 CNS; more than 100 µM in the experiment on SW-620 colon; more than 100 µM in the experiment on SK-OV-3 ovarian; 97.6 µM in the experiment on MDA-MB-231 breast; 60.7 µM in the experiment with SNB-19 CNS; more than 100 µM with NCI-H522 lung. For the same molecule, the TGI in the experiment with NCI-H460 lung, in the experiment on NCI-H23 lung and in the experiment with SN12C renal was more than 100 µM each time.
On to `c1ccc(C(=NNc2nc3ccccc3o2)c2ccccn2)nc1`, for which the TGI was 12.6 µM and 3.7 µM in the experiment on SF-295 CNS; 39.8 µM and 19.1 µM in the experiment with SW-620 colon; 21.6 µM and 17.7 µM in the experiment on MDA-MB-231 breast; > 46 µM and 33.7 µM in the experiment with SNB-19 CNS; 5.22 µM and 1.5 µM with NCI-H460 lung; 26.6 µM and 27.9 µM with NCI-H23 lung. In addition, the TGI with SN12C renal was more than 71.7 µM. The GI50 in the experiment on SW-620 colon is 0.0524 µM; in the experiment on SK-OV-3 ovarian, 0.0518 µM; in the experiment on MDA-MB-231 breast, 0.0693 µM; in the experiment with NCI-H522 lung it was 0.0339 µM; in the experiment on NCI-H460 lung, 0.0575 µM and 0.163 µM; with NCI-H23 lung, 0.0617 µM. Besides, the GI50 in the experiment on SN12C renal was 0.0856 µM.
Consider `N#Cc1ccccc1NC(=O)/C(=N\NC(=O)c1ccncc1)C(c1cnc2ccc([N+](=O)[O-])cc2n1)[N+](=O)[O-]` (stereo unspecified), for which the TGI with SF-295 CNS, in the experiment with SW-620 colon, in the experiment with SK-OV-3 ovarian, with MDA-MB-231 breast, with NCI-H522 lung and in the experiment with NCI-H460 lung was more than 100 µM each time. The TGI in the experiment with NCI-H23 lung and in the experiment on SN12C renal was more than 100 µM throughout.
On to `CC(=O)C1CC2(c3ccc(C)cc3)C(c3ccc(C)cc3)=C(c3ccc(C)cc3)C1(c1ccc(C)cc1)S2=O` (stereo unspecified), for which the GI50 in the experiment on SF-295 CNS is 85 µM; in the experiment on SW-620 colon, more than 100 µM; with SK-OV-3 ovarian, more than 100 µM; in the experiment with MDA-MB-231 breast, more than 100 µM; in the experiment on SNB-19 CNS, more than 100 µM; in the experiment on NCI-H522 lung it was more than 100 µM. In addition, the GI50 in the experiment with NCI-H460 lung, in the experiment on NCI-H23 lung and in the experiment with SN12C renal was more than 100 µM throughout. Also, the TGI in the experiment on SF-295 CNS, with SW-620 colon, in the experiment on SK-OV-3 ovarian, in the experiment on MDA-MB-231 breast, in the experiment on SNB-19 CNS and with NCI-H522 lung was more than 100 µM in each case. For the same molecule, the TGI in the experiment on NCI-H460 lung, with NCI-H23 lung and in the experiment on SN12C renal was more than 100 µM throughout.
As for `COc1ccc(C2c3cc4c(cc3OC(NNC(N)=O)C2C)OCO4)cc1` (stereo unspecified), the TGI with SF-295 CNS is 21.1 µM; in the experiment with SW-620 colon it was more than 100 µM; in the experiment on SK-OV-3 ovarian, more than 100 µM; in the experiment on MDA-MB-231 breast it was more than 100 µM; in the experiment with SNB-19 CNS, more than 100 µM; in the experiment with NCI-H522 lung, 18.3 µM. The figures for the TGI in the experiment with NCI-H460 lung, in the experiment with NCI-H23 lung and with SN12C renal were 98.9 µM, more than 86.1 µM and more than 100 µM, respectively.
Consider `CCCCCCCCCNCCCCCCCCC`, for which the GI50 in the experiment on SF-295 CNS is 1.74 µM; in the experiment on SW-620 colon it was 1.76 µM; in the experiment with SK-OV-3 ovarian, 2.04 µM; in the experiment on MDA-MB-231 breast it was 1.56 µM; in the experiment with SNB-19 CNS, 2.78 µM; in the experiment with NCI-H522 lung, 1.54 µM. In addition, the values for the GI50 in the experiment on NCI-H460 lung, in the experiment with NCI-H23 lung and in the experiment on SN12C renal were 1.93 µM, 1.72 µM and 1.59 µM, respectively. Moreover, the TGI stood at 3.29 µM with SF-295 CNS; 3.48 µM with SW-620 colon; 3.83 µM in the experiment with SK-OV-3 ovarian; 3.21 µM in the experiment on MDA-MB-231 breast; 9.83 µM with SNB-19 CNS; 3.08 µM with NCI-H522 lung. Further, the TGI in the experiment with NCI-H460 lung amounted to 3.65 µM; in the experiment with NCI-H23 lung, 3.39 µM; in the experiment with SN12C renal, 3.25 µM.
As for `Fc1ccc(Oc2nccc(-c3c(-c4ccc(F)cc4)ncn3C3CCNCC3)n2)cc1`, the GI50 in the experiment on SF-295 CNS is more than 25 µM; in the experiment on SW-620 colon it was more than 25 µM; with SK-OV-3 ovarian it was more than 23.9 µM; in the experiment with SNB-19 CNS it was more than 25 µM; with NCI-H522 lung, more than 25 µM; in the experiment on NCI-H460 lung it was more than 25 µM. In the experiment with SN12C renal, the GI50 is more than 19.6 µM. The TGI in the experiment on SF-295 CNS was more than 25 µM; with SW-620 colon it was more than 25 µM; in the experiment on SK-OV-3 ovarian it was more than 25 µM; in the experiment on MDA-MB-231 breast, more than 9.34 µM; with SNB-19 CNS it was more than 25 µM; in the experiment on NCI-H522 lung, more than 25 µM. For the same molecule, the TGI with NCI-H460 lung and with SN12C renal was more than 25 µM throughout.
For the molecule `N#CC1=C(N)OC2=C(COc3ccc(F)cc32)C1c1ccc(Cl)cc1` (stereo unspecified), the GI50 was 19.6 µM in the experiment on SF-295 CNS; 53.3 µM in the experiment with SW-620 colon; 53.1 µM in the experiment on SK-OV-3 ovarian; 26.1 µM in the experiment on MDA-MB-231 breast; 38.2 µM in the experiment with NCI-H522 lung; 27.8 µM in the experiment with NCI-H460 lung. The figures for the GI50 in the experiment on NCI-H23 lung and with SN12C renal were 29.6 µM and 28.3 µM, respectively. The TGI in the experiment with SF-295 CNS was 78.3 µM; in the experiment with SW-620 colon it was more than 100 µM; in the experiment with SK-OV-3 ovarian it was more than 100 µM; in the experiment with MDA-MB-231 breast, 88 µM; with NCI-H522 lung, 93.6 µM; in the experiment with NCI-H460 lung, more than 100 µM. The figures for the TGI in the experiment with NCI-H23 lung and in the experiment with SN12C renal were 93.6 µM and more than 100 µM, respectively.
